System: human myeloma cell line MM.1S
Assay: Biological pathway analysis of SILAC biomarker peptides against pathway database (broadinstitute gsea)
Description: Once biomarker peptides are identified for a specific drug by the SILAC method, the biomarker peptides may be compared to peptides/proteins in a biological pathway database in order to identify major biological pathways or functions implicated by the drug's action. A preferred pathway analysis website is at www dot broadinstitute dot org/gsea/index dot jsp.
This example describes the biological pathway analysis that was performed on each of Compound A, Compound B, and Tubastatin A.
Once biomarker peptides were identified for a specific drug (either Compound A, Compound B, or Tubastatin A) by the SILAC method in Example 1, the biomarker peptides were compared to peptides/proteins in the biological pathway database at www dot broadinstitute dot org/gsea/index dot jsp in order to identify major biological pathways or functions implicated by the drug's action.

O=C(NO)c1cnc(NC2(c3cccc(F)c3)CCCCC2)nc1 [Compound B, 2-((1-(3-fluorophenyl)cyclohexyl)amino)-N-hydroxypyrimidine-5-carboxamide]
Observed: number of genes in pathway REACTOME_PACKAGING_OF_TELOMERE_ENDS (Pathway_size 48): 15
Ratio observed/pathway size, REACTOME_PACKAGING_OF_TELOMERE_ENDS (Pathway_size 48): 0.3125
Observed: number of genes in pathway REACTOME_RNA_POL_I_PROMOTER_OPENING (Pathway_size 61): 15
Ratio observed/pathway size, REACTOME_RNA_POL_I_PROMOTER_OPENING (Pathway_size 61): 0.2459
Observed: number of genes in pathway REACTOME_DEPOSITION_OF_NEW_CENPA_CONTAINING_NUCLEOSOMES_AT_THE_CENTROMERE (Pathway_size 64): 15
Ratio observed/pathway size, REACTOME_DEPOSITION_OF_NEW_CENPA_CONTAINING_NUCLEOSOMES_AT_THE_CENTROMERE (Pathway_size 64): 0.2344
Observed: number of genes in pathway REACTOME_MEIOTIC_SYNAPSIS (Pathway_size 71): 16
Ratio observed/pathway size, REACTOME_MEIOTIC_SYNAPSIS (Pathway_size 71): 0.2254
Observed: number of genes in pathway MORF_PPP2CA (Pathway_size 127): 18
Ratio observed/pathway size, MORF_PPP2CA (Pathway_size 127): 0.1417
Observed: number of genes in pathway MORF_NME2 (Pathway_size 154): 19
Ratio observed/pathway size, MORF_NME2 (Pathway_size 154): 0.1234
Observed: number of genes in pathway MORF_NPM1 (Pathway_size 162): 20
Ratio observed/pathway size, MORF_NPM1 (Pathway_size 162): 0.1235
Observed: number of genes in pathway MORF_CTBP1 (Pathway_size 168): 24
Ratio observed/pathway size, MORF_CTBP1 (Pathway_size 168): 0.1429
Observed: number of genes in pathway MORF_G22P1 (Pathway_size 171): 23
Ratio observed/pathway size, MORF_G22P1 (Pathway_size 171): 0.1345
Observed: number of genes in pathway MORF_RAD21 (Pathway_size 182): 20
Ratio observed/pathway size, MORF_RAD21 (Pathway_size 182): 0.1099
Observed: number of genes in pathway PENG_LEUCINE_DEPRIVATION_DN (Pathway_size 187): 21
Ratio observed/pathway size, PENG_LEUCINE_DEPRIVATION_DN (Pathway_size 187): 0.1123
Observed: number of genes in pathway MORF_DAP3 (Pathway_size 193): 21
Ratio observed/pathway size, MORF_DAP3 (Pathway_size 193): 0.1088
Observed: number of genes in pathway MORF_ANP32B (Pathway_size 197): 27
Ratio observed/pathway size, MORF_ANP32B (Pathway_size 197): 0.1371
Observed: number of genes in pathway MORF_SKP1A (Pathway_size 202): 22
Ratio observed/pathway size, MORF_SKP1A (Pathway_size 202): 0.1089
Observed: number of genes in pathway MORF_AATF (Pathway_size 205): 22
Ratio observed/pathway size, MORF_AATF (Pathway_size 205): 0.1073
Observed: number of genes in pathway MORF_ACP1 (Pathway_size 210): 22
Ratio observed/pathway size, MORF_ACP1 (Pathway_size 210): 0.1048
Observed: number of genes in pathway MORF_XRCC5 (Pathway_size 234): 26
Ratio observed/pathway size, MORF_XRCC5 (Pathway_size 234): 0.1111
Observed: number of genes in pathway MORF_UBE2I (Pathway_size 238): 31
Ratio observed/pathway size, MORF_UBE2I (Pathway_size 238): 0.1303
Observed: number of genes in pathway MORF_EIF3S2 (Pathway_size 244): 25
Ratio observed/pathway size, MORF_EIF3S2 (Pathway_size 244): 0.1025
Observed: number of genes in pathway MORF_HDAC1 (Pathway_size 254): 30
Ratio observed/pathway size, MORF_HDAC1 (Pathway_size 254): 0.1181
Observed: number of genes in pathway MORF_DEK (Pathway_size 262): 29
Ratio observed/pathway size, MORF_DEK (Pathway_size 262): 0.1107
Observed: number of genes in pathway MORF_RAN (Pathway_size 268): 33
Ratio observed/pathway size, MORF_RAN (Pathway_size 268): 0.1231
Observed: number of genes in pathway MORF_BUB3 (Pathway_size 276): 27
Ratio observed/pathway size, MORF_BUB3 (Pathway_size 276): 0.09783
Observed: number of genes in pathway MORF_SOD1 (Pathway_size 277): 23
Ratio observed/pathway size, MORF_SOD1 (Pathway_size 277): 0.08303
Observed: number of genes in pathway MORF_CSNK2B (Pathway_size 287): 27
Ratio observed/pathway size, MORF_CSNK2B (Pathway_size 287): 0.09408
Observed: number of genes in pathway MORF_GNB1 (Pathway_size 303): 30
Ratio observed/pathway size, MORF_GNB1 (Pathway_size 303): 0.09901
Observed: number of genes in pathway PENG_GLUTAMINE_DEPRIVATION_DN (Pathway_size 337): 25
Ratio observed/pathway size, PENG_GLUTAMINE_DEPRIVATION_DN (Pathway_size 337): 0.07418
Observed: number of genes in pathway MORF_RAD23A (Pathway_size 345): 34
Ratio observed/pathway size, MORF_RAD23A (Pathway_size 345): 0.09855
Observed: number of genes in pathway HSIAO_HOUSEKEEPING_GENES (Pathway_size 389): 36
Ratio observed/pathway size, HSIAO_HOUSEKEEPING_GENES (Pathway_size 389): 0.09255
Observed: number of genes in pathway REACTOME_CELL_CYCLE (Pathway_size 412): 29
Ratio observed/pathway size, REACTOME_CELL_CYCLE (Pathway_size 412): 0.07039
Observed: number of genes in pathway CASORELLI_ACUTE_PROMYELOCYTIC_LEUKEMIA_DN (Pathway_size 662): 31
Ratio observed/pathway size, CASORELLI_ACUTE_PROMYELOCYTIC_LEUKEMIA_DN (Pathway_size 662): 0.04683
Observed: number of genes in pathway KIM_BIPOLAR_DISORDER_OLIGODENDROCYTE_DENSITY_CORR_UP (Pathway_size 681): 31
Ratio observed/pathway size, KIM_BIPOLAR_DISORDER_OLIGODENDROCYTE_DENSITY_CORR_UP (Pathway_size 681): 0.04552
Observed: number of genes in pathway BENPORATH_MYC_MAX_TARGETS (Pathway_size 775): 35
Ratio observed/pathway size, BENPORATH_MYC_MAX_TARGETS (Pathway_size 775): 0.04516
Observed: number of genes in pathway PUJANA_CHEK2_PCC_NETWORK (Pathway_size 778): 39
Ratio observed/pathway size, PUJANA_CHEK2_PCC_NETWORK (Pathway_size 778): 0.05013
Observed: number of genes in pathway GRADE_COLON_CANCER_UP (Pathway_size 870): 40
Ratio observed/pathway size, GRADE_COLON_CANCER_UP (Pathway_size 870): 0.04598
Observed: number of genes in pathway MACROMOLECULAR_COMPLEX (Pathway_size 945): 34
Ratio observed/pathway size, MACROMOLECULAR_COMPLEX (Pathway_size 945): 0.03598
Observed: number of genes in pathway LOPEZ_MBD_TARGETS (Pathway_size 957): 37
Ratio observed/pathway size, LOPEZ_MBD_TARGETS (Pathway_size 957): 0.03866
Observed: number of genes in pathway DANG_BOUND_BY_MYC (Pathway_size 1102): 46
Ratio observed/pathway size, DANG_BOUND_BY_MYC (Pathway_size 1102): 0.04174
Observed: number of genes in pathway INTRACELLULAR_ORGANELLE_PART (Pathway_size 1192): 47
Ratio observed/pathway size, INTRACELLULAR_ORGANELLE_PART (Pathway_size 1192): 0.03943
Observed: number of genes in pathway ORGANELLE_PART (Pathway_size 1197): 47
Ratio observed/pathway size, ORGANELLE_PART (Pathway_size 1197): 0.03927
Observed: number of genes in pathway BLALOCK_ALZHEIMERS_DISEASE_DN (Pathway_size 1237): 49
Ratio observed/pathway size, BLALOCK_ALZHEIMERS_DISEASE_DN (Pathway_size 1237): 0.03961
Observed: number of genes in pathway DODD_NASOPHARYNGEAL_CARCINOMA_DN (Pathway_size 1368): 39
Ratio observed/pathway size, DODD_NASOPHARYNGEAL_CARCINOMA_DN (Pathway_size 1368): 0.02851
Observed: number of genes in pathway DIAZ_CHRONIC_MEYLOGENOUS_LEUKEMIA_UP (Pathway_size 1382): 58
Ratio observed/pathway size, DIAZ_CHRONIC_MEYLOGENOUS_LEUKEMIA_UP (Pathway_size 1382): 0.04197
Observed: number of genes in pathway NUCLEUS (Pathway_size 1428): 40
Ratio observed/pathway size, NUCLEUS (Pathway_size 1428): 0.02801
Observed: number of genes in pathway PUJANA_ATM_PCC_NETWORK (Pathway_size 1440): 41
Ratio observed/pathway size, PUJANA_ATM_PCC_NETWORK (Pathway_size 1440): 0.02847
Observed: number of genes in pathway PUJANA_BRCA1_PCC_NETWORK (Pathway_size 1651): 68
Ratio observed/pathway size, PUJANA_BRCA1_PCC_NETWORK (Pathway_size 1651): 0.04119
Observed: number of genes in pathway GRAESSMANN_APOPTOSIS_BY_DOXORUBICIN_DN (Pathway_size 1781): 44
Ratio observed/pathway size, […]_APOPTOSIS_BY_DOXORUBICIN_DN (Pathway_size 1781): 0.02471
Observed: number of genes in pathway PILON_KLF1_TARGETS_DN (Pathway_size 1972): 45
Ratio observed/pathway size, PILON_KLF1_TARGETS_DN (Pathway_size 1972): 0.02282
Observed: number of genes in pathway CYTOPLASM (Pathway_size 2130): 50
Ratio observed/pathway size, CYTOPLASM (Pathway_size 2130): 0.02347
Observed: number of genes in pathway GGGCGGR_V$SP1_Q6 (Pathway_size 2939): 53
Ratio observed/pathway size, GGGCGGR_V$SP1_Q6 (Pathway_size 2939): 0.01803

From patent publication US20140357512A1, “HISTONE DEACETYLASE (HDAC) BIOMARKERS IN MULTIPLE MYELOMA” (priority 2013, published 2014)
